Source: patent US7087420B1, “Microbial β-glucuronidase genes, gene products and uses thereof” (Cambia, priority 1997, dated 2006)

What was measured:
[1] = chromophore released from pNPG; cited from earlier work
[2] = target: T1, E. coli β-glucuronidase (E. coli GUS, GUS^Eco), wild type, SEQ ID NO: 23 (Escherichia coli, UniProt P05804); conditions: background statement, no concentration; cited from earlier work
T1 construct: pNPG substrate; functional homotetramer

[3] = system: Staphylococcus β-glucuronidase (GUS^Stp, Staph GUS), wild type, SEQ ID NO: 18 (DNA SEQ ID NO: 1); experiment: Inhibition of Staphylococcus GUS by end product glucuronic acid; assay type: biochemical
Method: GUS^Stp enzyme activity is also resistant to inhibition by detergents. Enzyme activity assays are measured in the presence of varying amounts of SDS, Triton® X-100, or sarcosyl. […] In SDS, the enzyme still had substantial activity (60–75% activity). In addition, GUS^Stp is not inhibited by the end product of the reaction. Activity is determined normally or in the presence of 1 or 10 mM glucuronic acid. No inhibition is seen at either 1 or 10 mM glucuronic acid (FIG. 11). The enzyme is also assayed in the presence of organic solvents, dimethylformamide (DMF) and dimethylsulfoxide (DMSO), and high concentrations of NaCl (FIG. 12).

rice seeds = experiment: Growth of rice plants germinated in water containing glucuronide substrate; assay type: in vivo; conditions: 50 μg/mL X-GlcA in germination water
[4] = system: Staphylococcus β-glucuronidase (GUS^Stp, Staph GUS), wild type, SEQ ID NO: 18 (DNA SEQ ID NO: 1); experiment: Kinetics of pNPG hydrolysis by Staphylococcus GUS (spectrophotometric p-nitrophenol release); assay type: biochemical
Method: The thermal stability of GUS^Stp and E. coli GUS enzymes are determined at 65° C., using a substrate that can be measured by spectrophotometry, for example. One such substrate is p-nitrophenyl β-D-glucuronide (pNPG), which when cleaved by GUS releases the chromophore p-nitrophenol. At a pH greater than its pKa (approximately 7.15), the ionized chromophore absorbs light at 400–420 nm, therefore appears in the yellow range of visible light. Briefly, reactions are performed in 50 mM Na3PO4 pH 7.0, 10 mM 2-ME, 1 mM EDTA, 1 mM pNPG, and 0.1% Triton® X-100 at 37° C. The reactions are terminated by the addition of 0.4 ml of 2-amino-2-methylpropanediol, and absorbance measured at 415 nm against a substrate blank. Under these conditions, the molar extinction coefficient of p-nitrophenol is assumed to be 14,000: One unit is defined as the amount of enzyme that produces 1 nmole of product/min at 37° C.
Turnover number is calculated as nmoles of pNPG converted to p-nitrophenol per min per μg of purified protein.

Millin rice plants = conditions: MUG 1 mM in water
Method: Seeds of T0 plants, which are the primary transformed plants, from pTANG86.1/2/3/4/5/6 (see Table 7 below) transformed plants, seeds of pCAM1301 (E. coli GUS with N358-Q change to remove N-glycosylation signal sequence) transformed plants, or untransformed Millin rice seeds are germinated in water containing 1 mM MUG or 50 μg/mL X-GlcA with or without hygromycin (for nontransformed plants). Resulting plants are observed for any reduced growth due to the presence of MUG, X-GlcA.

yeast colonies = experiment: Yeast colonies on X-GlcA expression plates containing tunicamycin; assay type: cell-based; conditions: tunicamycin 5, 10, and 20 μg/ml
Method: (§1) To determine whether the N-glycosylation site has a deleterious effect, on secretion, yeast colonies are streaked on expression plates containing X-GlcA and from 0.1 to 20 μg/ml of tunicamycin (to inhibit all N-glycosylation).

yeast strain InvSc1 = experiment: Growth of transformed yeast colonies on expression plates with tunicamycin; conditions: tunicamycin 5, 10, and 20 μg/ml
Method: Yeast strain InvSc1 (mat α his3-Δ1 leu2 trp1-289 ura3-52) from Invitrogen (Carlsbad, Calif.) is transformed with the E. coli GUS and Staphylococcus GUS plasmids indicated in the table below. Transformants are plated on both selection media (minimal media supplemented with His, Leu, Trp, and 2% glucose as a carbon source to suppress the expression of the gene driven by the gal1 promoter) and expression media (media supplemented with His, Leu, Trp, 1% raffinose, 1% galactose as carbon source and with 50 μg/ml X-GlcA).
as §1

T1 sequence (P05804 whole entry): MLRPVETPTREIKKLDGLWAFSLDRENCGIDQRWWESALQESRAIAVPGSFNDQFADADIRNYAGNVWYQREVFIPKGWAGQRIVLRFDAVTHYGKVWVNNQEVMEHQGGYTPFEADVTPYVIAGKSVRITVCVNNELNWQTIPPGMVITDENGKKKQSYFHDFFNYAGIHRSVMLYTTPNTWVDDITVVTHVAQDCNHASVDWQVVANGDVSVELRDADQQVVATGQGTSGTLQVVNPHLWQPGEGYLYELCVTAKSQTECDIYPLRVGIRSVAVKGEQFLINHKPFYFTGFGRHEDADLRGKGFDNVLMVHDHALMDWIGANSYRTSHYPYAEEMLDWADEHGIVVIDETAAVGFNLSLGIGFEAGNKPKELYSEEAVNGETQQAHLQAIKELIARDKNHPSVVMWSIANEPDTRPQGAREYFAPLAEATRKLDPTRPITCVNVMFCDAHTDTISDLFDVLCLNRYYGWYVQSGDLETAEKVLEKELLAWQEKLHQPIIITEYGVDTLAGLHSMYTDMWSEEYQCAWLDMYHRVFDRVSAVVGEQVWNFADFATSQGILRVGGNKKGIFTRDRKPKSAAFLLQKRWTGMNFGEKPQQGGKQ

O=[N+]([O-])c1ccc(O)cc1 [p-nitrophenol]
pKa [1]: approximately 7.15

O=C(O)[C@H]1OC(O)[C@H](O)[C@@H](O)[C@@H]1O (stereo partly drawn) [glucuronic acid]
Inhibition by end product (glucuronic acid) [2]: inhibited | Inhibition by glucuronic acid ([3]; 1 mM glucuronic acid (FIG. 11)): No inhibition | Inhibition by glucuronic acid ([3]; 10 mM glucuronic acid (FIG. 11)): No inhibition | Inhibition by glucuronic acid (summary statement) ([3]; unlike E. coli GUS, FIG. 11): not substantially inhibited

O=C(O)[C@H]1O[C@@H](Oc2c[nH]c3ccc(Br)c(Cl)c23)[C@H](O)[C@@H](O)[C@@H]1O [X-GlcA, 5-bromo-4-chloro-3-indolyl β-D-glucuronide]
toxic effects / reduced growth of plants (rice seeds): No toxic effects

O=C(O)[C@H]1O[C@@H](Oc2ccc([N+](=O)[O-])cc2)[C@H](O)[C@@H](O)[C@@H]1O [pNPG, p-nitrophenyl β-D-glucuronide]
Vmax relative to E. coli GUS ([4]; GUS^Stp vs E. coli GUS, 37° C.): about the same | Turnover number relative to E. coli GUS ([4]; GUS^Stp vs E. coli GUS, 37° C. (FIG. 8)): approximately the same as E. coli GUS | Vmax ([4]; Staph GUS, substrate pNPG, 37° C.): 80 nmol/min/µg

Cc1cc(=O)oc2cc(O[C@@H]3O[C@H](C(=O)O)[C@@H](O)[C@H](O)[C@H]3O)ccc12 [MUG, 4-methylumbelliferyl β-D-glucuronide]
Effect on roots of rice plants (reduced growth) (Millin rice plants): somewhat stunted

tunicamycin [listing 1 of 2 here]
growth of yeast colonies (yeast colonies): do not grow

tunicamycin [listing 2 of 2 here]
Yeast colony growth (toxicity) (yeast strain InvSc1): do not grow
